The experiment concerns the target T1, human mAChR M4 (Homo sapiens, UniProt P08173).
T1 construct: expressed in transfected cells; host or cells: CHO-K1 (American Type Culture Collection), stably expressing hM4 and Gqi5
T1 sequence (P08173 1-479): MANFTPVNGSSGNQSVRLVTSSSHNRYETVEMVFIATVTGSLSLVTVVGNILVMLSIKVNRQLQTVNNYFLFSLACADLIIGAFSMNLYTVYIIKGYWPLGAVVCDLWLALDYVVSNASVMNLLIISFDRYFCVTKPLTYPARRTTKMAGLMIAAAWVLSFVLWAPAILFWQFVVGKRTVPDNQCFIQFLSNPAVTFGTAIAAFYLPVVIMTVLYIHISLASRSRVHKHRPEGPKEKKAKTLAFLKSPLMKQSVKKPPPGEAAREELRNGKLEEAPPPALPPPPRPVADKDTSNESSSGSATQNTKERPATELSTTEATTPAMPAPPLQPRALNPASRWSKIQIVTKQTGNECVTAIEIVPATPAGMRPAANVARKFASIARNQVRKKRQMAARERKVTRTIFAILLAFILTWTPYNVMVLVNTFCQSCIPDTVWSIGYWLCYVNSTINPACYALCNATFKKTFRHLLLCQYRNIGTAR
The experiment can be described thus: mAChR M4 cell-based functional assay: calcium mobilization (Fluo-4, FDSS), potentiation of EC20 acetylcholine response in hM4-Gqi5 CHO-K1 cells. As to conditions: human M4; for Emax at 30 µM: CHO-K1, % ACh maximum at 30 μM; for EC50: potentiation of EC20 acetylcholine response, calcium mobilization. Put shortly:
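CHO-K1 cells stably co-expressing human M4 and chimeric Gqi5, loaded with Fluo-4 AM (50 min, 37 °C). Compounds in 11-point 1:3 series added first; EC20 acetylcholine added at 144 s and again at 230 s. Calcium read on FDSS at 1 Hz; EC50 and Emax from four-parameter logistic fit of potentiated EC20 response.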

What is called Emax is the greatest response seen or fitted, relative to the assay's reference. What is called EC50 is the concentration that produces a half-maximal response. Turning to `Cc1cc(=O)n2nc(N3CCc4ncc(-c5ccccc5C(C)C)cc4C3)c(C)cc2n1` [Compound 1-230, 7-(3-(2-isopropylphenyl)-7,8-dihydro-1,6-naphthyridin-6(5H)-yl)-2,8-dimethyl-4H-pyrimido[1,2-b]pyridazin-4-one], the maximal effect (Emax) at 30 µM is 43% and the concentration giving a half-maximal response (EC50) came out at 1300 nM.

For the compound `Cc1cc(=O)n2nc(N3CCc4ncc(-c5ccccc5C5CC5)cc4C3)c(C)cc2n1` [Compound 1-231, 7-(3-(2-cyclopropylphenyl)-7,8-dihydro-1,6-naphthyridin-6(5H)-yl)-2,8-dimethyl-4H-pyrimido[1,2-b]pyridazin-4-one], the maximum response (Emax) at 30 µM was found to be 56% and the concentration for a half-maximal effect (EC50) stood at 859 nM.

With `CCc1ccccc1-c1cnc2c(c1)CN(c1nn3c(=O)cc(C)nc3cc1C)CC2` [Compound 1-232, 7-(3-(2-ethylphenyl)-7,8-dihydro-1,6-naphthyridin-6(5H)-yl)-2,8-dimethyl-4H-pyrimido[1,2-b]pyridazin-4-one], the maximal effect (Emax) at 30 µM came to 57% and the EC50 was found to be 441 nM.

Regarding `COc1ccccc1-c1cnc2c(c1)CN(c1nn3c(=O)cc(C)nc3cc1C)CC2` [Compound 1-233, 7-(3-(2-methoxyphenyl)-7,8-dihydro-1,6-naphthyridin-6(5H)-yl)-2,8-dimethyl-4H-pyrimido[1,2-b]pyridazin-4-one], the maximum response (Emax) at 30 µM amounted to 65% and the concentration giving a half-maximal response (EC50) was 735 nM.

With `Cc1cc(=O)n2nc(N3CCc4ncc(-c5ccccc5F)cc4C3)c(C)cc2n1` [Compound 1-234, 7-(3-(2-fluorophenyl)-7,8-dihydro-1,6-naphthyridin-6(5H)-yl)-2,8-dimethyl-4H-pyrimido[1,2-b]pyridazin-4-one], the maximum response (Emax) at 30 µM came to 71% and the EC50 stood at 235 nM.

As to `Cc1cc(=O)n2nc(N3CCc4ncc(-c5ccccc5O)cc4C3)c(C)cc2n1` [Compound 1-235, 7-(3-(2-hydroxyphenyl)-7,8-dihydro-1,6-naphthyridin-6(5H)-yl)-2,8-dimethyl-4H-pyrimido[1,2-b]pyridazin-4-one], the Emax at 30 µM stood at 62% and the EC50 is 568 nM.

As for `Cc1cc(=O)n2nc(N3CCc4ncc(-c5cc(F)ccc5F)cc4C3)c(C)cc2n1` [Compound 1-236, 7-(3-(2,5-difluorophenyl)-7,8-dihydro-1,6-naphthyridin-6(5H)-yl)-2,8-dimethyl-4H-pyrimido[1,2-b]pyridazin-4-one], the Emax at 30 µM worked out at 87% and the concentration giving a half-maximal response (EC50) is 1600 nM.

With `Cc1cc(=O)n2nc(N3CCc4ncc(-c5ccccc5C)cc4C3)c(C)cc2n1` [Compound 1-237, 2,8-dimethyl-7-(3-(o-tolyl)-7,8-dihydro-1,6-naphthyridin-6(5H)-yl)-4H-pyrimido[1,2-b] pyridazin-4-one], the Emax at 30 µM came to 100% and the EC50 stood at 365 nM.

For `Cc1cc(=O)n2nc(N3CCc4ncc(-c5cc(F)ncc5C)cc4C3)c(C)cc2n1` [Compound 1-238, 7-(3-(2-fluoro-5-methylpyridin-4-yl)-7,8-dihydro-1,6-naphthyridin-6(5H)-yl)-2,8-dimethyl-4H-pyrimido[1,2-b]pyridazin-4-one], the Emax at 30 µM was 92% and the concentration giving a half-maximal response (EC50) amounted to 711 nM.

For the compound `Cc1cc(-c2cnc3c(c2)CN(c2nn4c(=O)cc(C)nc4cc2C)CC3)ccn1` [Compound 1-239, 2,8-dimethyl-7-(3-(2-methylpyridin-4-yl)-7,8-dihydro-1,6-naphthyridin-6(5H)-yl)-4H-pyrimido[1,2-b] pyridazin-4-one], the Emax at 30 µM was 78% and the EC50 is 98 nM.

For `Cc1cc(=O)n2nc(N3CCc4ncc(-c5ccncc5)cc4C3)c(C)cc2n1` [Compound 1-240, 2,8-dimethyl-7-(3-(pyridin-4-yl)-7,8-dihydro-1,6-naphthyridin-6(5H)-yl)-4H-pyrimido[1,2-b]pyridazin-4-one], the maximal response (Emax) at 30 µM was determined as 86% and the EC50 amounted to 284 nM.

Turning to `Cc1cc(=O)n2nc(N3CCc4ncc(-c5ccncc5C)cc4C3)c(C)cc2n1` [Compound 1-241, 2,8-dimethyl-7-(3-(3-methylpyridin-4-yl)-7,8-dihydro-1,6-naphthyridin-6(5H)-yl)-4H-pyrimido[1,2-b] pyridazin-4-one], the Emax at 30 µM was 87% and the concentration for a half-maximal effect (EC50) came out at 228 nM.

`Cc1cc(=O)n2nc(N3CCc4ncc(-c5cc(F)nc(F)c5)cc4C3)c(C)cc2n1` [Compound 1-242, 7-(3-(2,6-difluoropyridin-4-yl)-7,8-dihydro-1,6-naphthyridin-6(5H)-yl)-2,8-dimethyl-4H-pyrimido[1,2-b]pyridazin-4-one]: the maximum response (Emax) at 30 µM turned out to be 79% and the EC50 amounted to 612 nM.

Turning to `Cc1cc(-c2cnc3c(c2)CN(c2nn4c(=O)cc(C)nc4c(C)c2C)CC3)ccn1` [Compound 1-243, 2,8,9-trimethyl-7-(3-(2-methylpyridin-4-yl)-7,8-dihydro-1,6-naphthyridin-6(5H)-yl)-4H-pyrimido[1,2-b] pyridazin-4-one], the Emax at 30 µM is 84% and the concentration for a half-maximal effect (EC50) is 124 nM.

As to `Cc1cc(=O)n2nc(N3CCc4ncc(-c5ccncc5)cc4C3)c(C)c(C)c2n1` [Compound 1-244, 2,8,9-trimethyl-7-(3-(pyridin-4-yl)-7,8-dihydro-1,6-naphthyridin-6(5H)-yl)-4H-pyrimido[1,2-b]pyridazin-4-one], the maximal response (Emax) at 30 µM worked out at 82% and the half-maximal effective concentration (EC50) stood at 112 nM.

Consider `Cc1cc(=O)n2nc(N3CCc4ncc(-c5ccncc5C)cc4C3)c(C)c(C)c2n1` [Compound 1-245, 2,8,9-trimethyl-7-(3-(3-methylpyridin-4-yl)-7,8-dihydro-1,6-naphthyridin-6(5H)-yl)-4H-pyrimido[1,2-b] pyridazin-4-one], for which the maximal effect (Emax) at 30 µM stood at 87% and the EC50 was 72 nM.

As for `Cc1cc(=O)n2nc(N3CCc4ncc(-c5cc(F)nc(F)c5)cc4C3)c(C)c(C)c2n1` [Compound 1-246, 7-(3-(2,6-difluoropyridin-4-yl)-7,8-dihydro-1,6-naphthyridin-6(5H)-yl)-2,8,9-trimethyl-4H-pyrimido[1,2-b]pyridazin-4-one], the Emax at 30 µM was found to be 80% and the 50% effective concentration (EC50) stood at 1020 nM.

Turning to `Cc1cc(=O)n2nc(N3CCc4ncc(-c5ccccc5C(C)C)cc4C3)c(C)c(C)c2n1` [Compound 1-247, 7-(3-(2-isopropylphenyl)-7,8-dihydro-1,6-naphthyridin-6(5H)-yl)-2,8,9-trimethyl-4H-pyrimido[1,2-b]pyridazin-4-one], the Emax at 30 µM was 55% and the concentration giving a half-maximal response (EC50) came to 1030 nM.

On to `Cc1cc(=O)n2nc(N3CCc4ncc(-c5ccccc5C5CC5)cc4C3)c(C)c(C)c2n1` [Compound 1-248, 7-(3-(2-cyclopropylphenyl)-7,8-dihydro-1,6-naphthyridin-6(5H)-yl)-2,8,9-trimethyl-4H-pyrimido[1,2-b]pyridazin-4-one], for which the Emax at 30 µM was determined as 80% and the EC50 stood at 852 nM.

For the compound `CCc1ccccc1-c1cnc2c(c1)CN(c1nn3c(=O)cc(C)nc3c(C)c1C)CC2` [Compound 1-249, 7-(3-(2-ethylphenyl)-7,8-dihydro-1,6-naphthyridin-6(5H)-yl)-2,8,9-trimethyl-4H-pyrimido[1,2-b]pyridazin-4-one], the maximal effect (Emax) at 30 µM is 87% and the EC50 worked out at 1000 nM.

Consider `COc1ccccc1-c1cnc2c(c1)CN(c1nn3c(=O)cc(C)nc3c(C)c1C)CC2` [Compound 1-250, 7-(3-(2-methoxyphenyl)-7,8-dihydro-1,6-naphthyridin-6(5H)-yl)-2,8,9-trimethyl-4H-pyrimido[1,2-b]pyridazin-4-one], for which the maximal effect (Emax) at 30 µM was found to be 79% and the half-maximal effective concentration (EC50) was 1010 nM.

As for `Cc1cc(=O)n2nc(N3CCc4ncc(-c5ccccc5F)cc4C3)c(C)c(C)c2n1` [Compound 1-251, 7-(3-(2-fluorophenyl)-7,8-dihydro-1,6-naphthyridin-6(5H)-yl)-2,8,9-trimethyl-4H-pyrimido[1,2-b]pyridazin-4-one], the maximal effect (Emax) at 30 µM was 84% and the EC50 came out at 289 nM.

Consider `Cc1cc(F)c(F)c(-c2cnc3c(c2)CN(c2nn4c(=O)cc(C)nc4cc2C)CC3)c1` [Compound 1-252, 7-(3-(2,3-difluoro-5-methylphenyl)-7,8-dihydro-1,6-naphthyridin-6(5H)-yl)-2,8-dimethyl-4H-pyrimido[1,2-b]pyridazin-4-one], for which the Emax at 30 µM was 70% and the concentration for a half-maximal effect (EC50) came to 631 nM.

Turning to `Cc1cc(=O)n2nc(N3CCc4ncc(-c5cc(F)cc(F)c5F)cc4C3)c(C)cc2n1` [Compound 1-253, 2,8-dimethyl-7-(3-(2,3,5-trifluorophenyl)-7,8-dihydro-1,6-naphthyridin-6(5H)-yl)-4H-pyrimido[1,2-b] pyridazin-4-one], the maximal response (Emax) at 30 µM turned out to be 54% and the concentration for a half-maximal effect (EC50) was found to be 2330 nM.

`Cc1cc(=O)n2nc(N3CCc4ncc(-c5ccccc5OC(F)(F)F)cc4C3)c(C)cc2n1` [Compound 1-254, 2,8-dimethyl-7-(3-(2-(trifluoromethoxy)phenyl)-7,8-dihydro-1,6-naphthyridin-6(5H)-yl)-4H-pyrimido[1,2-b]pyridazin-4-one]: the maximal response (Emax) at 30 µM was 48% and the EC50 worked out at 1370 nM.
